# From patent US7776899B2, “Methods for treatment of erectile dysfunction” (Repros Therapeutics Inc., priority 1998, dated 2010)
# Counter-ions that a name gives are not always drawn.
# What was measured:
# [1] = pH 7.48
# Method: (§1) A 0.1 N solution of NaOH was used to adjust the pH to the indicated values. These solutions were shaken for about 10 minutes then held at room temperature overnight in order to allow maximum dissolution of drugs in the buffer. […] HPLC was performed using a C18 column having a mobile phase of buffer (5 mM NaH2PO4 and 5 mM octane sulfonic acid, pH 3) in 30% acetonitrile with a flow rate of 1.5 ml/minute. The detection wavelength was 210 nm.
# physchem = conditions: thermodynamic from solid
# Method: as §1
compound,measurement,setting,value
"COc1ccc(Cc2nccc3cc(OC)c(OC)cc23)cc1OC [Papaverine, papaverine hydrochloride]",In Solution (solubility in mixture),[1],170 µg/mL
same,solubility,"physchem; pH 3.91, aqueous buffer, In Solution (solubility in mixture)",36800 µg/mL
same,solubility,"physchem; pH 3.91, aqueous buffer, solubility",~36800 µg/mL
same,solubility,"physchem; pH 4.35, aqueous buffer, In Solution (solubility in mixture)",7750 µg/mL
same,solubility,"physchem; pH 5.04, aqueous buffer, In Solution (solubility in mixture)",700 µg/mL
same,solubility,"physchem; pH 7.48, aqueous buffer, In Solution (solubility in mixture)",~200 µg/mL
same,solubility,"physchem; pH 7.65, aqueous buffer, In Solution (solubility in mixture)",200 µg/mL
